The target of this assay is T1, human apelin receptor (Homo sapiens, UniProt P35414).
T1 construct: expressed in transfected cells
T1 sequence (P35414 1-380): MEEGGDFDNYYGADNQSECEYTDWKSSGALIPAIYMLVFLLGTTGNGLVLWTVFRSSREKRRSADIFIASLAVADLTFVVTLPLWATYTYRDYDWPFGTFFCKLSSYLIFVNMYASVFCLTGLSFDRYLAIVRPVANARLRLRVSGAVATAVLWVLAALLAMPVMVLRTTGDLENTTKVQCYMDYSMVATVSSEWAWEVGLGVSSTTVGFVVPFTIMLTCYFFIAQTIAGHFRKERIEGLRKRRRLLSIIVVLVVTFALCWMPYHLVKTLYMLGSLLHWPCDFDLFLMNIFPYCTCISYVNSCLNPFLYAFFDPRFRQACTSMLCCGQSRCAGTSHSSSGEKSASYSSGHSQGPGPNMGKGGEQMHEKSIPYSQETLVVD
The assay is described as follows: Determination of agonism on the human apelin receptor by a calcium fluorescence assay (FLIPR). As to conditions: HEK293 cells stably transfected with human apelin receptor and Giaq protein, Fluo-4 calcium fluorescence, read-out: EC50 (APJ agonism). The assay is classed as cell-based. In short, it runs like this:
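Agonist EC50s come from peak intracellular calcium transients recorded by FLIPR Tetra, scaled to the 1 μM apelin-13 maximum per plate. Test system: HEK293 stably transfected with human apelin receptor plus Giaq, Fluo-4-loaded (4 μM, 1 h, 37 °C, pH 7.4 buffer with probenecid); ≥7 concentrations, triplicates.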

`CCC(CC)n1c(Cc2cccs2)nc2cc(C(=O)N[C@@H](CC(C)C)C(=O)N3CC4CC3CN4Cc3ccc(C(F)(F)F)cc3)ccc21` (stereo partly drawn) [Example 350, 1-(1-Ethyl-propyl)-2-thiophen-2-ylmethyl-1H-benzoimidazole-5-carboxylic acid {(S)-3-methyl-1-[5-(4-trifluoromethyl-benzyl)-2,5-diaza-bicyclo[2.2.1]heptane-2-carbonyl]-butyl}-amide]: the concentration for a half-maximal effect (EC50) (as a rule, the concentration that produces a half-maximal response) was determined as 29.1 µM. Regarding `CC(C)C[C@H](NC(=O)c1ccc2c(c1)nc(Cc1ccccc1)n2C1CCCCC1C)C(=O)O` (stereo partly drawn) [Example 143, (S)-2-{[2-Benzyl-1-(2-methyl-cyclohexyl)-1H-benzoimidazole-5-carbonyl]-amino}-4-methyl-pentanoic acid], the concentration giving a half-maximal response (EC50) was determined as 2.45 µM.

For `CC(C)C[C@@H](CC(=O)O)NC(=O)c1ccc2c(c1)nc(Cc1cccs1)n2C1CCCCC1C` (single isomer, unassigned) [Example 437], the EC50 came to 4.91 µM. The value for `CCC(CC)n1c(Cc2cccs2)nc2cc(C(=O)N[C@@H](CC(C)C)C(=O)NC3CCN(Cc4ccccc4)C3)ccc21` (stereo partly drawn) [Example 319, 1-(1-Ethyl-propyl)-2-thiophen-2-ylmethyl-1H-benzoimidazole-5-carboxylic acid [(S)-1-(1-benzyl-pyrrolidin-3-ylcarbamoyl)-3-methyl-butyl]-amide] was 1.52 µM.

In the case of `CCC(CC)n1c(Cc2cccs2)nc2cc(C(=O)N[C@@H](CC(C)C)C(=O)N3CCN(CC(C)C)CC3)ccc21` [Example 272, 1-(1-Ethyl-propyl)-2-thiophen-2-ylmethyl-1H-benzoimidazole-5-carboxylic acid [(S)-1-(4-isobutyl-piperazine-1-carbonyl)-3-methyl-butyl]-amide], the concentration giving a half-maximal response (EC50) is 2.77 µM. In the case of `CC(C)C[C@@H](CC(=O)O)NC(=O)c1ccc2c(c1)nc(Cc1cccs1)n2C1CCCCC1C` (stereo partly drawn) [Example 101, (S)-5-Methyl-3-{[1-(2-methyl-cyclohexyl)-2-thiophen-2-ylmethyl-1H-benzoimidazole-5-carbonyl]-amino}-hexanoic acid], the EC50 worked out at 0.106 µM. The value for `CC(C)C[C@@H](CC(=O)O)NC(=O)c1ccc2c(c1)nc(Cc1ccco1)n2C1CCCCC1C` (single isomer, unassigned) [Example 435] was 0.226 µM. The value for `CCC(CC)n1c(Cc2cccs2)nc2cc(C(=O)N[C@@H](CC(C)C)C(=O)NCC3CCCN(CCc4ccccc4)C3)ccc21` (stereo partly drawn) [Example 302, 1-(1-Ethyl-propyl)-2-thiophen-2-ylmethyl-1H-benzoimidazole-5-carboxylic acid {(S)-3-methyl-1-[(1-phenethyl-piperidin-3-ylmethyl)-carbamoyl]-butyl}-amide] was 0.386 µM; that for `CCC(CC)n1c(Cc2cccs2)nc2cc(C(=O)N[C@@H](CC(C)C)C(=O)NC(C)CCN3CCOCC3)ccc21` (stereo partly drawn) [Example 306, 1-(1-Ethyl-propyl)-2-thiophen-2-ylmethyl-1H-benzoimidazole-5-carboxylic acid [(S)-3-methyl-1-(1-methyl-3-morpholin-4-yl-propylcarbamoyl)-butyl]-amide] was 1.26 µM; that for `CCC(CC)n1c(Cc2cccs2)nc2cc(C(=O)N[C@@H](CC(C)C)C(=O)NCCN(C)C)ccc21` [Example 267, 1-(1-Ethyl-propyl)-2-thiophen-2-ylmethyl-1H-benzoimidazole-5-carboxylic acid [(S)-1-(2-dimethylamino-ethylcarbamoyl)-3-methyl-butyl]-amide] was 0.383 µM. As for `CCC(CC)n1c(Cc2cccs2)nc2cc(C(=O)N[C@H](CC(=O)O)CC3CCCC3)ccc21` [Example 60, (S)-4-Cyclopentyl-3-{[1-(1-ethyl-propyl)-2-thiophen-2-ylmethyl-1H-benzoimidazole-5-carbonyl]-amino}-butyric acid], the figure is 0.046 µM; as for `CC(C)C[C@H](NC(=O)c1ccc2c(c1)nc(Cc1cccs1)n2C1CCCC1C)C(=O)O` (single isomer, unassigned) [Example 429], 0.891 µM; as for `CCC(CC)n1c(Cc2cccs2)nc2cc(C(=O)N[C@@H](CC(C)C)C(=O)NC3CCN(Cc4c(OC)cccc4OC)CC3)ccc21` [Example 288, 1-(1-Ethyl-propyl)-2-thiophen-2-ylmethyl-1H-benzoimidazole-5-carboxylic acid {(S)-1-[1-(2,6-dimethoxy-benzyl)-piperidin-4-ylcarbamoyl]-3-methyl-butyl}-amide], 0.512 µM.

For the compound `CC(C)C[C@H](NC(=O)c1ccc2c(c1)nc(Cc1ccoc1)n2C1CCCCC1C)C(=O)O` (stereo partly drawn) [Example 131, (S)-2-{[2-Furan-3-ylmethyl-1-(2-methyl-cyclohexyl)-1H-benzoimidazole-5-carbonyl]-amino}-4-methyl-pentanoic acid], the EC50 worked out at 0.185 µM.

In the case of `CCC(CC)n1c(Cc2cccs2)nc2cc(C(=O)NC(CC3CCC(C)CC3)C(=O)O)ccc21` (stereo not shown) [Example 36, 2-{[1-(1-Ethyl-propyl)-2-thiophen-2-ylmethyl-1H-benzoimidazole-5-carbonyl]-amino}-3-(4-methyl-cyclohexyl)-propionic acid], the EC50 stood at 1.26 µM.

Consider `CC1CCCCC1n1c(Cc2cccs2)nc2cc(C(=O)N[C@@H](CC3CCCCC3)C(=O)O)ccc21` (single isomer, unassigned) [Example 426], for which the concentration giving a half-maximal response (EC50) worked out at 1.63 µM. The value for `C[C@@H]1CCCC[C@H]1n1c(Cc2cccs2)nc2cc(C(=O)NC(CC(=O)O)C3CCCCC3)ccc21` (single isomer, unassigned) [Example 462] was 0.137 µM; that for `CCC(CC)n1c(Cc2cccs2)nc2cc(C(=O)NC(CCO)C3CC3)ccc21` (stereo not shown) [Example 213, 1-(1-Ethyl-propyl)-2-thiophen-2-ylmethyl-1H-benzoimidazole-5-carboxylic acid (1-cyclopropyl-3-hydroxy-propyl)-amide] was 29.9 µM. The value for `CC(C)C[C@H](NC(=O)c1ccc2c(c1)nc(Cc1cccs1)n2C1CCCCC1C)C(=O)O` (single isomer, unassigned) [Example 414] was 0.664 µM; that for `CCCC(C)(NC(=O)c1ccc2c(c1)nc(Cc1cccs1)n2C(CC)CC)C(=O)O` (stereo not shown) [Example 25, 2-{[1-(1-Ethyl-propyl)-2-thiophen-2-ylmethyl-1H-benzoimidazole-5-carbonyl]-amino}-2-methyl-pentanoic acid] was 4.75 µM; that for `CCC(CC)n1c(Cc2cccs2)nc2cc(C(=O)N[C@@H](CC(C)C)C(=O)O)ccc21` [Example 114, (S)-2-{[1-(1-Ethyl-propyl)-2-thiophen-2-ylmethyl-1H-benzoimidazole-5-carbonyl]-amino}-4-methyl-pentanoic acid] was 0.185 µM. With `CCCN1CCCC(CNC(=O)[C@H](CC(C)C)NC(=O)c2ccc3c(c2)nc(Cc2cccs2)n3C(CC)CC)C1` (stereo partly drawn) [Example 309, 1-(1-Ethyl-propyl)-2-thiophen-2-ylmethyl-1H-benzoimidazole-5-carboxylic acid {(S)-3-methyl-1-[(1-propyl-piperidin-3-ylmethyl)-carbamoyl]-butyl}-amide], the EC50 amounted to 0.482 µM. The value for `CCC(CC)n1c(Cc2cccs2)nc2cc(C(=O)N[C@@H](CC(C)C)C(=O)NCc3ccccc3OC)ccc21` [Example 238, 1-(1-Ethyl-propyl)-2-thiophen-2-ylmethyl-1H-benzoimidazole-5-carboxylic acid [(S)-1-(2-methoxy-benzylcarbamoyl)-3-methyl-butyl]-amide] was 6.55 µM; that for `C[C@@H]1CCCC[C@H]1n1c(Cc2cccs2)nc2cc(C(=O)NC(CC(=O)O)C3CCCCC3)ccc21` (stereo partly drawn) [Example 57, 3-Cyclohexyl-3-{[1-((1R,2R)-2-methyl-cyclohexyl)-2-thiophen-2-ylmethyl-1H-benzoimidazole-5-carbonyl]-amino}-propionic acid] was 0.475 µM; that for `CC[C@H](C)[C@@H](CCC(=O)O)NC(=O)c1ccc2c(c1)nc(Cc1cccs1)n2[C@@H]1CCCC[C@H]1C` [Example 72, (4R,5S)-5-Methyl-4-{[1-((1R,2R)-2-methyl-cyclohexyl)-2-thiophen-2-ylmethyl-1H-benzoimidazole-5-carbonyl]-amino}-heptanoic acid] was 0.047 µM. Consider `CCC(CC)n1c(Cc2cccs2)nc2cc(C(=O)N[C@@H](CC(C)C)C(=O)N3CC4CC3CN4CC3CCCC3)ccc21` (stereo partly drawn) [Example 349, 1-(1-Ethyl-propyl)-2-thiophen-2-ylmethyl-1H-benzoimidazole-5-carboxylic acid [(S)-1-(5-cyclopentylmethyl-2,5-diaza-bicyclo[2.2.1]heptane-2-carbonyl)-3-methyl-butyl]-amide], for which the EC50 amounted to 3.04 µM. As for `CCC(CC)n1c(Cc2cccs2)nc2cc(C(=O)N[C@@H](CC(C)C)C(=O)NCC(=O)O)ccc21` [Example 408, ((S)-2-{[1-(1-Ethyl-propyl)-2-thiophen-2-ylmethyl-1H-benzoimidazole-5-carbonyl]-amino}-4-methyl-pentanoylamino)-acetic acid], the figure is 0.447 µM. As for `CCC(CC)n1c(Cc2cccs2)nc2cc(C(=O)N[C@@H](CC(C)C)C(=O)NCCc3ccc(OC)cc3)ccc21` [Example 361, 1-(1-Ethyl-propyl)-2-thiophen-2-ylmethyl-1H-benzoimidazole-5-carboxylic acid {(S)-1-[2-(4-methoxy-phenyl)-ethylcarbamoyl]-3-methyl-butyl}-amide], the figure is 25 µM.

The values above are taken from patent publication US9156796B2, “Benzoimidazole-carboxylic acid amide derivatives as APJ receptor modulators” (SANOFI, priority 2013, dated 2015).
